According to US20100063008A1, “GELATINOUS ELASTOMER COMPOSITIONS” (Silipos, Inc., priority 2008, published 2010):

How the values were obtained:
[1] = Exudation of active agents from gel specimens to filter paper discs, quantified by UV, MS, GC and/or HPLC after extraction; assay type: physicochemical; details: for Active Agent Transferred from Gel to Filters: 37° C., 0.40 psi; for Total Active Agent Exuded from Gel: cumulative
Description: Sample filter paper discs were placed in contact with gel specimens of same diameter under constant low pressure (0.40 psi. (2.8 Mpa)) at 37° C. Multiple time-controlled exposures of the filter paper to the gel were preformed in succession to same side of gel. Quantification of active agent transferred to the filter paper discs was determined by UV, MS, GC and or HPLC analysis after extraction of active agent from the filter paper. Exudation rates was expressed as μg/unit time per unit surface area.
This compound was then divided into three aliquots' of approximately 10 grams each and poured into a 2.625″ diameter aluminum petri dish and allowed to cool to create individual gel samle discs. Subsequently, absorbent cellulose filter blotter paper was die cut to enough 2.625″ diameter discs to be employed as a wicking media for repeated exposure in direct contact with the gel compound under specific conditions as follows.
(§1) Exposure Conditions: 37-40 deg. C., Sample filter paper discs in contact with gel specimens of same diameter were stacked in […]. aluminum petri dishes, gel specimen diameter 2.625″×0.125″ thick, filter paper disc diameter 2.625″ with another petri dish and a 1 kg dead weight on top of stack. Pressure calculated at ˜0.407 psi. (2.8 Mpa) constant. Two replicates per test condition. Repeat exposures at 3 hours then repeat three exposures of 18 hours each, changing discs but keeping same gel specimen and same side of each gel specimen in contact with each successive filter paper disc sample.
The filter paper disc specimens aa through kk were then sent to an analytical laboratory for HPLC and GC analysis along with a small sample of each individual raw ingredient so that the HPLC and GC equipment could be calibrated for the protocol being employed by the lab. This calibration allowed for determining the maximum recoverable (measurable) amount of each ingredient that could be measured using these techniques and would later be used to correct the data. The analytical laboratory then detected and measured the amount of each of the added active agents that was flushed out of the filter paper discs using wet chemistry techniques known to those skilled in the art.
The analytical data was interpreted, and the amounts of each ingredient which was exuded into each filter paper blotter disc specimen, and subsequently extracted using wet chemistry, were then entered into a data analysis spreadsheet and adjusted based on the Analytical Recovery Rate to determine actual concentration of each ingredient extracted.

[2] = Total weight of exudate (oil) absorbed by filter paper blotter discs and theoretical amount of each ingredient exuded; assay type: physicochemical
Description: as §1
Data was calculated to determine the total weight of exudate absorbed by each individual sample filter paper blotter disc test specimen. Calculations were then performed based upon the ratios of ingredients in the gel disc formula to determine the theoretical amount of each ingredient that could have been exuded from the oil if the oil contained the same ratio of ingredients as contained in the control oil sample and in the gel.

[3] = Gel Specimen Number 1, 1 h filter exposure, time 0-1 h
[4] = Gel Specimen Number 1, 3 h filter exposure, time 1-4 h
[5] = Gel Specimen Number 1, 18 h filter exposure, time 4-22 h
[6] = Gel Specimen Number 1, 18 h filter exposure, time 22-40 h
[7] = Gel Specimen Number 1, 18 h filter exposure, time 40-58 h
[8] = Gel Specimen Number 1, Time 1 h
[9] = Gel Specimen Number 1, Time 4 h
[10] = Gel Specimen Number 1, Time 22 h
[11] = Gel Specimen Number 1, Time 40 h
[12] = Gel Specimen Number 1, Time 58 h
[13] = Gel Specimen Number 2, 1 h filter exposure, time 0-1 h
[14] = Gel Specimen Number 2, 3 h filter exposure, time 1-4 h
[15] = Gel Specimen Number 2, 18 h filter exposure, time 4-22 h
[16] = Gel Specimen Number 2, 18 h filter exposure, time 22-40 h
[17] = Gel Specimen Number 2, 18 h filter exposure, time 40-58 h
[18] = Gel Specimen Number 2, Time 1 h
[19] = Gel Specimen Number 2, Time 4 h
[20] = Gel Specimen Number 2, Time 22 h
[21] = Gel Specimen Number 2, Time 40 h
[22] = Gel Specimen Number 2, Time 58 h
[23] = Specimen aa, Hours 1, Cummulative Hours 1
[24] = Specimen bb, Hours 1, Cummulative Hours 1
[25] = Specimen cc, Hours 3, Cummulative Hours 4
[26] = Specimen dd, Hours 3, Cummulative Hours 4
[27] = Specimen ee, Hours 18, Cummulative Hours 22
[28] = Specimen ff, Hours 18, Cummulative Hours 22
[29] = Specimen gg, Hours 18, Cummulative Hours 40
[30] = Specimen hh, Hours 18, Cummulative Hours 40
[31] = Specimen ii, Hours 18, Cummulative Hours 58
[32] = Specimen kk, Hours 18, Cummulative Hours 58

Molecule | Active Agent Transferred from Gel to Filters [1, 3] [μg per filter] | Active Agent Transferred from Gel to Filters [1, 4] [μg per filter] | Active Agent Transferred from Gel to Filters [1, 5] [μg per filter] | Active Agent Transferred from Gel to Filters [1, 6] [μg per filter] | Active Agent Transferred from Gel to Filters [1, 7] [μg per filter] | Total Active Agent Exuded from Gel [1, 8] [µg] | Total Active Agent Exuded from Gel [1, 9] [µg] | Total Active Agent Exuded from Gel [1, 10] [µg] | Total Active Agent Exuded from Gel [1, 11] [µg] | Total Active Agent Exuded from Gel [1, 12] [µg] | Active Agent Transferred from Gel to Filters [1, 13] [μg per filter] | Active Agent Transferred from Gel to Filters [1, 14] [μg per filter] | Active Agent Transferred from Gel to Filters [1, 15] [μg per filter] | Active Agent Transferred from Gel to Filters [1, 16] [μg per filter] | Active Agent Transferred from Gel to Filters [1, 17] [μg per filter] | Total Active Agent Exuded from Gel [1, 18] [µg] | Total Active Agent Exuded from Gel [1, 19] [µg] | Total Active Agent Exuded from Gel [1, 20] [µg] | Total Active Agent Exuded from Gel [1, 21] [µg] | Total Active Agent Exuded from Gel [1, 22] [µg] | other results
Ceramide III | 18 | 18 | 25 | 29 | 10 | 18 | 35 | 60 | 89 | 99 | 20 | 24 | 22 | 13 | 20 | 20 | 43 | 65 | 78 | 98 | Quantitative Analysis - Islechem u-gram extraction [1, 23]: 17 u-gram; Quantitative Analysis - Islechem u-gram extraction [1, 24]: 19 u-gram; Quantitative Analysis - Islechem u-gram extraction [1, 25]: 17 u-gram; Quantitative Analysis - Islechem u-gram extraction [1, 26]: 23 u-gram; Quantitative Analysis - Islechem u-gram extraction [1, 27]: 24 u-gram; Quantitative Analysis - Islechem u-gram extraction [1, 28]: 21 u-gram; Quantitative Analysis - Islechem u-gram extraction [1, 29]: 28 u-gram; Quantitative Analysis - Islechem u-gram extraction [1, 30]: 13 u-gram; Quantitative Analysis - Islechem u-gram extraction [1, 31]: 9.6 u-gram; Quantitative Analysis - Islechem u-gram extraction [1, 32]: 19 u-gram
COC(=O)c1ccccc1O [Methyl Salicylate, reference compound] | 1005 | 1694 | 4812 | 5165 | 3882 | 1005 | 2699 | 7511 | 12675 | 16558 | 1753 | 2506 | 4847 | 4271 | 3729 | 1753 | 4259 | 9106 | 13376 | 17106 | Quantitative Analysis - Islechem u-gram extraction [1, 23]: 854 u-gram; Quantitative Analysis - Islechem u-gram extraction [1, 24]: 1490 u-gram; Quantitative Analysis - Islechem u-gram extraction [1, 25]: 1440 u-gram; Quantitative Analysis - Islechem u-gram extraction [1, 26]: 2130 u-gram; Quantitative Analysis - Islechem u-gram extraction [1, 27]: 4090 u-gram; Quantitative Analysis - Islechem u-gram extraction [1, 28]: 4120 u-gram; Quantitative Analysis - Islechem u-gram extraction [1, 29]: 4390 u-gram; Quantitative Analysis - Islechem u-gram extraction [1, 30]: 3630 u-gram; Quantitative Analysis - Islechem u-gram extraction [1, 31]: 3300 u-gram; Quantitative Analysis - Islechem u-gram extraction [1, 32]: 3170 u-gram; Estimated grams of ingredient exuded (theoretical amount from ratios of ingredients in the gel disc formula) ([2]; Sample aa, Test Disc 1, Exposed 1 hours): 0.0022 grams; Estimated grams of ingredient exuded (theoretical amount from ratios of ingredients in the gel disc formula) ([2]; Sample bb, Test Disc 1 Replicate, Exposed 1 hours): 0.0031 grams; Estimated grams of ingredient exuded (theoretical amount from ratios of ingredients in the gel disc formula) ([2]; Sample cc, Test Disc 2, Exposed 3 hours): 0.0024 grams; Estimated grams of ingredient exuded (theoretical amount from ratios of ingredients in the gel disc formula) ([2]; Sample dd, Test Disc 2 Replicate, Exposed 3 hours): 0.0035 grams; Estimated grams of ingredient exuded (theoretical amount from ratios of ingredients in the gel disc formula) ([2]; Sample ee, Test Disc 3, Exposed 18 hours): 0.0062 grams; Estimated grams of ingredient exuded (theoretical amount from ratios of ingredients in the gel disc formula) ([2]; Sample ff, Test Disc 3 Replicate, Exposed 18 hours): 0.0062 grams; Estimated grams of ingredient exuded (theoretical amount from ratios of ingredients in the gel disc formula) ([2]; Sample gg, Test Disc 4, Exposed 18 hours): 0.0064 grams; Estimated grams of ingredient exuded (theoretical amount from ratios of ingredients in the gel disc formula) ([2]; Sample hh, Test Disc 4 Replicate, Exposed 18 hours): 0.0057 grams; Estimated grams of ingredient exuded (theoretical amount from ratios of ingredients in the gel disc formula) ([2]; Sample ii, Test Disc 5, Exposed 18 hours): 0.0051 grams; Estimated grams of ingredient exuded (theoretical amount from ratios of ingredients in the gel disc formula) ([2]; Sample kk, Test Disc 5 Replicate, Exposed 18 hours): 0.0051 grams
O=C(O)c1ccccc1O [Salicylic Acid, reference compound] | 372 | 793 | 4765 | 6600 | 4035 | 372 | 1165 | 5929 | 12529 | 16565 | 705 | 1459 | 5153 | 4976 | 3941 | 705 | 2164 | 7316 | 12293 | 16234 | –
